In patent publication US6667334B1, “Imidazolidine derivatives, the production thereof, their use and pharmaceutical preparations containing the same” (Aventis Pharma Deutschland GmbH, priority 1998, dated 2003):

Molecular target: T1, interaction between VCAM-1 and VLA-4 (Homo sapiens, UniProt P05556+P13612)
T1 construct: the VLA-4 integrins, are supplied in their natural form as surface molecules on human U937 cells; host or cells: U937 cells carry the endogenous VLA-4; The partner hVCAM-1(1-3)-IgG was secreted by transfected COS cells (ATCC CRL1651) and used as culture supernatant
T1 sequence (P13612 34-1032): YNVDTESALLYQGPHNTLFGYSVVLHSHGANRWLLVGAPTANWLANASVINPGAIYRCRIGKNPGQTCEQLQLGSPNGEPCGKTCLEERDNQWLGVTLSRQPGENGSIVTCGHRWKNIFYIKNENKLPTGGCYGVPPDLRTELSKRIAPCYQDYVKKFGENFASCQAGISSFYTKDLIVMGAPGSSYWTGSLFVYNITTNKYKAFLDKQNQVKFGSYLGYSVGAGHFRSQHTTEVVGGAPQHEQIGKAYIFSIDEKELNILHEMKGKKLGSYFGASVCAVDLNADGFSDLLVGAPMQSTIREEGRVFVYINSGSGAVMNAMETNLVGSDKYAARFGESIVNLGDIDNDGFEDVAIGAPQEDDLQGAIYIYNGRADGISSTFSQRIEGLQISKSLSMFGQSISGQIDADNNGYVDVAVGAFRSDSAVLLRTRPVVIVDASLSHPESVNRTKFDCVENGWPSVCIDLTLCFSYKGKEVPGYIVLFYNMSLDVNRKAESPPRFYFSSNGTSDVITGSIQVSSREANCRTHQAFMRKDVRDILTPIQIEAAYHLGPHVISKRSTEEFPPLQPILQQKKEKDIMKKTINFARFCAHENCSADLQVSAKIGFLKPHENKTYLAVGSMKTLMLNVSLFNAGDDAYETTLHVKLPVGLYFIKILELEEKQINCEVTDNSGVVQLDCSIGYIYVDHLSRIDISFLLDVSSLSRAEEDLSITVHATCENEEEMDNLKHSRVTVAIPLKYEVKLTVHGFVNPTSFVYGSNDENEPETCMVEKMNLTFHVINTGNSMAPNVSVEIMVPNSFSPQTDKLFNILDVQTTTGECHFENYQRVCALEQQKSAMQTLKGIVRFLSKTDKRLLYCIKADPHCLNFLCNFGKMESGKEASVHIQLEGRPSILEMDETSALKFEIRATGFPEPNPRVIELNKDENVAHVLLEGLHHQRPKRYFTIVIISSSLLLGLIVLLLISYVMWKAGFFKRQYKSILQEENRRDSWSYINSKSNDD
T1 sequence (P05556 21-798): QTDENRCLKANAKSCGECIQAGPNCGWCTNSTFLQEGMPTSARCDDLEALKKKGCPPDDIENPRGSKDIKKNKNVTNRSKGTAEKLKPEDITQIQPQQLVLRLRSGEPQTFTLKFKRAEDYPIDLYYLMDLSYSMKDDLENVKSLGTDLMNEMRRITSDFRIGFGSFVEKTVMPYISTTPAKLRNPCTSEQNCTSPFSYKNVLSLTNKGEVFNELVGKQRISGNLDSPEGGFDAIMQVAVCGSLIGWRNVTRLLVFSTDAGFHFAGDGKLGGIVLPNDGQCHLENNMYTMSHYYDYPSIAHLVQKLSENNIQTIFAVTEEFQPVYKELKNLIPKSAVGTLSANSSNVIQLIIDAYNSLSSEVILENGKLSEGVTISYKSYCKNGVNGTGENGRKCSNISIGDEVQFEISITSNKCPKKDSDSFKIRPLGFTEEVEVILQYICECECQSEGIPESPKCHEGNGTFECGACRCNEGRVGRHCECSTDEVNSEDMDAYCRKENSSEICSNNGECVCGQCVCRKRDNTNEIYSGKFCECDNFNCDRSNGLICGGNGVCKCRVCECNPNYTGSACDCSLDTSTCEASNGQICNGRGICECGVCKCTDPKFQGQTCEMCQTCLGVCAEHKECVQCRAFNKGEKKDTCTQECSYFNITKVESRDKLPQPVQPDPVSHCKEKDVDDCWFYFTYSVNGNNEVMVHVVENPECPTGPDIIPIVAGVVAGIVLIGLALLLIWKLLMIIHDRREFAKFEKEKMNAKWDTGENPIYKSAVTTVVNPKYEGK
Assay: U937/VCAM-1 cell adhesion test: adhesion of U937 cells to hVCAM-1(1-3)-IgG
Assay type: cell-based
Conditions: human U937 cells (ATCC CRL 1593) adhering to hVCAM-1(1-3)-IgG; concentration giving 50% inhibition of adhesion
Source text: The test method used for the activity of the compounds of the formula I on the interaction between VCAM-1 and VLA-4 is an assay which is specific for this interaction. The cellular binding components, i.e. the VLA-4 integrins, are supplied in their natural form as surface molecules on human U937 cells (ATCC CRL 1593), which belong to the leukocytes group. The specific binding components used are genetically engineered recombinant soluble fusion proteins, consisting of the extracytoplasmatic domain of human VCAM-1 and the constant region of a human immunoglobulin of the subclass IgGl.
Assay for the Measurement of the Adhesion of U937 Cells (ATCC CRL 1593) to hVCAM-1(1-3)-IgG
1. Preparation of Human VCAM-1(1-3)-IgG and Human CD4-IgG
A genetic construct for the expression of the extracellular domain of human VCAM-1, associated with the genetic sequence of the heavy chain of human immunoglobulin IgGI (hinge, CH2 and CH3 regions), from Dr. Brian Seed, Massachusetts General Hospital, Boston, USA was employed (cf. Damle and Aruffo, Proc. Natl. Acad. Sci. USA 1991, 88, 6403-6407). The soluble fusion protein hVCAM-1(1-3)-IgG contained the three amino-terminal extracellular immunoglobulin-like domains of human VCAM-1 (Damle and Aruffo, Proc. Natl. Acad. Sci. USA 1991, 88, 6403-6407). CD4-IgG (Zettlmeissl et al., DNA and Cell Biology 1990, 9, 347) served as a fusion protein for negative controls. The recombinant proteins were expressed as soluble proteins after DEAE/dextran-mediated DNA transfection in COS cells (ATCC CRL1651) according to standard procedures (Ausubel et al., Current Protocols in Molecular Biology, John Wiley & Sons, Inc., 1994).
2. Assay for the Measurement of the Adhesion of U937 Cells to hVCAM-1(1-3)-IgG
2.1 96-well microtiter test plates (Nunc Maxisorb) were incubated at room temperature for 1 hour with 100 μl/well of a goat-anti-human IgG antibody solution (10 μg/ml in 50 mM tris, pH 9.5). After removal of the antibody solution, washing was carried out once with PBS.
2.2 150 μl/well of a blocking buffer (1% BSA in PBS) was incubated on the plates at room temperature for 0.5 hour. After removal of the blocking buffer, washing was carried out once with PBS.
2.3 100 μl per well of a cell culture supernatant of transfected COS cells were incubated on the plates at room temperature for 1.5 hours. The COS cells were transfected with a plasmid which codes for the three N-terminal immunoglobulin-like domains of VCAM-1, coupled to the Fc part of human IgG, (hVCAM-1(1-3)-IgG). The content of hVCAM-1(1-3)-IgG was about 0.5-1 μg/ml. After removal of the culture supernatant, washing was carried out once with PBS.
2.4 The plates were incubated at room temperature for 20 minutes with 100 μl/well of Fc receptor blocking buffer (1 mg/ml of γ-globulin, 100 mM NaCl, 100 μM MgCl2, 100 μM MnCl2, 100 μM CaCl2, 1 mg/ml of BSA in 50 mM HEPES, pH 7.5). After removal of the Fc receptor blocking buffer, washing was carried out once with PBS.
2.5 20 μl of binding buffer (100 mM NaCl, 100 μM MgCl2, 100 μM MnCl2, 100 μM CaCl2, 1 mg/ml of BSA in 50 mM HEPES, pH 7.5) were initially introduced, and the substances to be tested were added in 10 μl of binding buffer and incubated for 20 minutes. The controls used were antibodies against VCAM-1 (BBT, No. BBA6) and against VLA-4 (Immunotech, No. 0764).
2.6 U937 cells were incubated in Fc receptor blocking buffer for 20 minutes and then added by pipette in a concentration of 1×10^6/ml and in an amount of 100 μl per well ([…]).
2.7 The plates were slowly immersed at an angle of 45° in stop buffer (100 mM NaCl, 100 μM MgCl2, 100 μM MnCl2, 100 μM CaCl2 in 25 mM tris, pH 7.5) and shaken off. The process was repeated.
2.8 50 μl/well of a dye solution (16.7 μg/ml of Hoechst Dye 33258, 4% formaldehyde, 0.5% Triton X-100 in PBS) were then incubated on the plates for 15 minutes. […]

Compound	IC50
CC(C)C[C@@H](C(=O)NC(CC(=O)O)c1ccccc1F)N1C(=O)N(Cc2ccc(/C=C/c3ccccc3)cc2)C(C)(C)C1=O (stereo partly drawn) [Example 14, 3-((S)-2-(4,4-Dimethyl-3-(4-styrylbenzyl)-2,5-dioxo-imidazolidin-1-yl)-2-(2-methylpropyl)acetylamino)-3-(2-fluorophenyl)propionic Acid]	15.3 µM
CC(C)C[C@@H](C(=O)NCCC(=O)O)N1C(=O)N(Cc2ccc(/C=C/c3ccccc3)cc2)C(C)(C)C1=O [Example 4, 3-((S)-2-(4,4-Dimethyl-3-(4-styrylbenzyl)-2,5-dioxo-imidazolidin-1-yl)-2-(2-methylpropyl)acetylamino)propionic Acid]	27.8 µM
CC(C)C[C@@H](C(=O)N[C@H](C)CC(=O)O)N1C(=O)N(Cc2ccc(/C=C/c3ccccc3)cc2)C(C)(C)C1=O [Example 1, (R)-3-((S)-2-(4,4-Dimethyl-3-(4-styrylbenzyl)-2,5-dioxoimidazolidin-1-yl)-2-(2-methylpropyl)acetylamino)-3-methylpropionic Acid]	3.2 µM
CC(C)C[C@@H](C(=O)NC(CC(=O)O)c1ccc(F)cc1)N1C(=O)N(Cc2ccc(/C=C/c3ccccc3)cc2)C(C)(C)C1=O (stereo partly drawn) [Example 11, 3-((S)-2-(4,4-Dimethyl-3-(4-styrylbenzyl)-2,5-dioxo-imidazolidin-1-yl)-2-(2-methylpropyl)acetylamino)-3-(4-fluorophenyl)propionic Acid]	18 µM
COc1ccc(C(CC(=O)O)NC(=O)[C@H](CC(C)C)N2C(=O)N(Cc3ccc(/C=C/c4ccccc4)cc3)C(C)(C)C2=O)cc1F (stereo partly drawn) [Example 12, 3-((S)-2-(4,4-Dimethyl-3-(4-styrylbenzyl)-2,5-dioxo-imidazolidin-1-yl)-2-(2-methylpropyl)acetylamino)-3-(3-fluoro-4-methoxyphenyl)propionic Acid]	17.5 µM
COc1cccc(C(CC(=O)O)NC(=O)[C@H](CC(C)C)N2C(=O)N(Cc3ccc(/C=C/c4ccccc4)cc3)C(C)(C)C2=O)c1 (stereo partly drawn) [Example 10, 3-((S)-2-(4,4-Dimethyl-3-(4-styrylbenzyl)-2,5-dioxo-imidazolidin-1-yl)-2-(2-methylpropyl)acetylamino)-3-(3-methoxyphenyl)propionic Acid]	24.5 µM
Cc1ccccc1/C=C/c1ccc(CN2C(=O)N([C@@H](CC(C)C)C(=O)N[C@H](C)CC(=O)O)C(=O)C2(C)C)cc1 [Example 8, (R)-3-((S)-2-(4,4-Dimethyl-3-(4-(2-(2-methylphenyl)-vinyl)benzyl)-2,5-dioxoimidazolidin-1-yl)-2-(2-methyl-propyl)acetylamino)-3-methylpropionic Acid]	2 µM
Cc1ccccc1/C=C/c1ccc(CN2C(=O)N([C@@H](CC(C)C)C(=O)N[C@H](CC(=O)O)c3ccccc3)C(=O)C2(C)C)cc1 [Example 9, (R)-3-((S)-2-(4,4-Dimethyl-3-(4-(2-(2-methylphenyl)-vinyl)benzyl)-2,5-dioxoimidazolidin-1-yl)-2-(2-methyl-propyl)acetylamino)-3-phenylpropionic Acid]	0.18 µM

More lines, in order of falling IC50, values ahead:

IC50	Compound
118 µM	CC(C)C[C@@H](C(=O)N[C@H](C)CC(=O)O)N1C(=O)N(Cc2ccc(CCc3ccccc3)cc2)C(C)(C)C1=O [Example 2, (R)-3-((S)-2-(4,4-Dimethyl-3-(4-(2-phenylethyl)benzyl)-2,5-dioxoimidazolidin-1-yl)-2-(2-methylpropyl)acetylamino)-3-methylpropionic Acid]
64.6 µM	Cc1cccc(C(CC(=O)O)NC(=O)[C@H](CC(C)C)N2C(=O)N(Cc3ccc(/C=C/c4ccccc4)cc3)C(C)(C)C2=O)c1 (stereo partly drawn) [Example 13, 3-((S)-2-(4,4-Dimethyl-3-(4-styrylbenzyl)-2,5-dioxo-imidazolidin-1-yl)-2-(2-methylpropyl)acetylamino)-3-(3-methylphenyl)propionic Acid]
61.5 µM	CC(C)C[C@@H](C(=O)NC(CC(=O)O)c1cccc(F)c1)N1C(=O)N(Cc2ccc(/C=C/c3ccccc3)cc2)C(C)(C)C1=O (stereo partly drawn) [Example 15, 3-((S)-2-(4,4-Dimethyl-3-(4-styrylbenzyl)-2,5-dioxo-imidazolidin-1-yl)-2-(2-methylpropyl)acetylamino)-3-(3-fluorophenyl)propionic acid]
36.6 µM	CC(C)C[C@@H](C(=O)NC(CC(=O)O)c1ccc(Cl)cc1)N1C(=O)N(Cc2ccc(/C=C/c3ccccc3)cc2)C(C)(C)C1=O (stereo partly drawn) [Example 17, 3-(4-Chlorophenyl)-3-((S)-2-(4,4-dimethyl-3-(4-styrylbenzyl)-2,5-dioxoimidazolidin-1-yl)-2-(2-methyl-propyl)acetylamino)propionic Acid]
34.9 µM	CCCCc1ccc(C(CC(=O)O)NC(=O)[C@H](CC(C)C)N2C(=O)N(Cc3ccc(/C=C/c4ccccc4)cc3)C(C)(C)C2=O)cc1 (stereo partly drawn) [Example 16, 3-(4-Butylphenyl)-3-((S)-2-(4,4-dimethyl-3-(4-styrylbenzyl)-2,5-dioxoimidazolidin-1-yl)-2-(2-methyl-propyl)acetylamino)propionic Acid]
16.4 µM	CC(C)C[C@@H](C(=O)N[C@H](CC(=O)O)c1ccc2c(c1)OCO2)N1C(=O)N(Cc2ccc(Oc3ccccc3)cc2)C(C)(C)C1=O [Example 6, (R)-3-((S)-2-(4,4-Dimethyl-2,5-dioxo-3-(4-phenyloxy-20 benzyl)imidazolidin-1-yl)-2-(2-methylpropyl)acetylamino)-3-(3,4-methylenedioxyphenyl)propionic Acid]
2.9 µM	CC(C)C[C@@H](C(=O)N[C@H](C)CC(=O)O)N1C(=O)N(Cc2ccc(OCc3ccccc3)cc2)C(C)(C)C1=O [Example 7, (R)-3-((S)-2-(3-(4-Benzyloxybenzyl)-4,4-dimethyl-2,5-dioxoimidazolidin-1-yl)-2-(2-methylpropyl)acetylamino)-3-methylpropionic Acid]
0.56 µM	CC(C)C[C@@H](C(=O)N[C@H](CC(=O)O)c1ccccc1)N1C(=O)N(Cc2ccc(/C=C/c3ccccc3)cc2)C(C)(C)C1=O [Example 3, (R)-3-((S)-2-(4,4-Dimethyl-3-(4-styrylbenzyl)-2,5-dioxoimidazolidin-1-yl)-2-(2-methylpropyl)acetylamino)-3-phenylpropionic Acid]
0.15 µM	CC(C)C[C@@H](C(=O)N[C@H](CC(=O)O)c1ccc2c(c1)OCO2)N1C(=O)N(Cc2ccc(/C=C/c3ccccc3)cc2)C(C)(C)C1=O [Example 5, (R)-3-((S)-2-(4,4-Dimethyl-3-(4-styrylbenzyl)-2,5-dioxo-imidazolidin-1-yl)-2-(2-methylpropyl)acetylamino)-3-(3,4-methylenedioxyphenyl)propionic Acid]
